We go through 2 molecules from patent publication US9694084B2, “Methods to induce targeted protein degradation through bifunctional molecules” (Dana-Farber Cancer Institute, Inc., priority 2014, dated 2017).

Test [1] deals with recombinant, human CRBN-DDB1 and BRD4 (Homo sapiens, UniProt O60885+Q96SW2). The test can be described thus: CRBN-DDB1/BRD4 dimerization (proximity) AlphaScreen assay. It is filed as biochemical. As to conditions: co-incubation with 111 nM dBET1, competitor 1 μM, stereo-specific. (Alpha assays give light when donor and acceptor beads are brought close together.)
A further test relates to PIM1. The test can be described thus: Expression proteomics in MV4-11 cells. The following applies: 250 nM, 2 hours.
The subject of test [2] is MV4-11 cell proliferation. As to the kind of experiment: MV4-11 cell proliferation (ATP content). The format is cell-based. The following applies: Homo sapiens, MV4-11, 24 h, read-out: IC50, MV4-11 cell proliferation (ATP content).
The subject of another test is MV4-11 cells. As to the kind of experiment: Apoptosis in MV4-11 cells (Caspase-GLO, PARP and Caspase-3 cleavage, Annexin V). The format is cell-based, human. As to conditions: MV4-11, 4 or 8 hours then drug washout, assessed at 24 hours.

Molecules are shown by their SMILES.

With `Cc1sc2c(c1C)C(c1ccc(Cl)cc1)=N[C@@H](CC(=O)OC(C)(C)C)c1nnc(C)n1-2` [JQ1], the “competition of dBET1 induced proximity” value in test [1] is listed as “Inhibition of chemical adaptor function was accomplished”. In addition, in the test on PIM1, the PIM1 protein abundance entry was “downregulated”. Besides, in test [2], the IC50 worked out at 1100 nM. Moreover, in the test with MV4-11 cells, the “apoptotic response after pulsed treatment” value is given as “did not yield a pronounced apoptotic response”.

For `O=C1CCC(N2C(=O)c3ccccc3C2=O)C(=O)N1` (centres unmarked) [thalidomide], the “competition of dBET1 induced proximity” value in test [1] was “Inhibition of chemical adaptor function was accomplished”.
